# Results from patent US20240010602A1, “PHENYL UNSATURATED KETONES AS HUMAN FACTOR XIIIA INHIBITORS FOR TREATMENT OF THROMBOEMBOLIC DISEASES” (Xavier University of Louisiana, priority 2022, published 2024).
# pIC50: −log10 of the molar value.
# Target: T1, human factor XIIIa (Homo sapiens, UniProt P00488)
# T1 sequence (P00488 39-732 limits assumed): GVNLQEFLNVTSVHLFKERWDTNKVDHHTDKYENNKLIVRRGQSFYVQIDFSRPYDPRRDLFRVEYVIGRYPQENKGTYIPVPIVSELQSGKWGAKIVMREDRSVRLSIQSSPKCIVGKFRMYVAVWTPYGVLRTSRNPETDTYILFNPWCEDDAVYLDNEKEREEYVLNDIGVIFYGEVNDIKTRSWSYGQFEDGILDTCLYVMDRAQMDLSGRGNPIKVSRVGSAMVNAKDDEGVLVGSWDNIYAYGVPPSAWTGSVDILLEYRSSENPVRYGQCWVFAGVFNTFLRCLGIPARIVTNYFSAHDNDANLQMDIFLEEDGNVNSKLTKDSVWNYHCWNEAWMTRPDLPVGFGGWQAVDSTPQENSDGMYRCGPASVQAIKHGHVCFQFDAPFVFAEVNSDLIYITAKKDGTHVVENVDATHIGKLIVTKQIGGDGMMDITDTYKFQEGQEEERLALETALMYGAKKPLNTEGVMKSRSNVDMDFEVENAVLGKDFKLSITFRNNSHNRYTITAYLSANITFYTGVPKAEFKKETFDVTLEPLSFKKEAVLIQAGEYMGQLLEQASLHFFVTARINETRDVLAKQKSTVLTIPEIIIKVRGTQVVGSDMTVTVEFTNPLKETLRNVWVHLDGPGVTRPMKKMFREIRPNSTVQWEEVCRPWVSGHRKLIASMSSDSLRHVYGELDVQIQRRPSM
# Assay: bi-substrate, fluorescence-based trans-glutamination assay
# Assay type: biochemical
# Details: pH 7.4, 37° C., 10 min incubation, N,N-dimethylcasein and dansylcadaverine substrates; read-out: FXIIIa IC50
# Description: To evaluate the effect of inhibitor on human factor XIIIa (and other transglutaminases), a bi-substrate, fluorescence-based trans-glutamination assay was performed. Generally, 1 μL of inhibitor was diluted with 87 μL of pH 7.4 buffer (50 mM Tris-HCl, 1 mM CaCl2, 100 mM NaCl, and 2 mg/mL N,N-dimethylcasein) and 5 μL dithiothreitol (20 mM) at 37° C. followed by the addition of 2 μL of human factor XIIIa (0.3 μM) and incubation for 10 min. The activity of factor XIIIa was monitored following the addition of 5 μL of dansylcadaverine (2 mM) by measuring the initial rate of increase in fluorescence emission (λEx.=360 nm and λEm.=490 nm). Relative residual factor XIIIa activity at each concentration of the inhibitor was calculated from the ratio of factor XIIIa activity in the presence and absence of the inhibitor. Logistic Eq. 1 was used to fit the concentration dependence of residual […] activity so as to obtain the potency (IC50) and efficacy (ΔY %) of inhibition.
# In this equation, Y is the ratio of residual […] activity in the presence of inhibitor to that in its absence, YM and Y0 are the maximum and minimum possible values of the fractional residual factor XIIIa activity, IC50 is the concentration of the inhibitor that leads to 50% inhibition of enzyme activity, and HS is the Hill slope. YM, Y0, IC50, and HS values are determined by nonlinear curve fitting of the data. The data is shown in FIG. 2 (top panel) and Table 1 below: […]
row,Structure (SMILES),pIC50
1,"C=C(CC)C(=O)c1ccc(OCC(=O)O)c(Cl)c1Cl [Formula II, 2-(2,3-dichloro-4-(2-methylenebutanoyl)phenoxy)acetic acid]",3.98
2,"C=C(CC)C(=O)c1ccc(OCC(=O)OC)c(Cl)c1Cl [Formula III, methyl 2-(2,3-dichloro-4-(2-methylenebutanoyl)phenoxy)acetate]",4.04
3,"C=C(CC)C(=O)c1ccc(OCC(=O)NC)c(Cl)c1Cl [Formula IV, 2-(2,3-dichloro-4-(2-methylenebutanoyl)phenoxy)-N-methylacetamide]",4.00
4,"C=C(CC)C(=O)c1ccc(OCC(=O)N(C)C)c(Cl)c1Cl [Formula V, 2-(2,3-dichloro-4-(2-methylenebutanoyl)phenoxy)-N,N-dimethylacetamide]",4.12
5,"C=CC(=O)c1ccc(OCC(=O)O)c(Cl)c1Cl [Formula VII, 2-(4-acryloyl-2,3-dichlorophenoxy)acetic acid]",4.08

# Stronger by pIC50, values ahead:
row,pIC50,Structure (SMILES)
1,4.29,"C=C(CC)C(=O)c1c(Cl)cc(OCC(=O)O)cc1Cl [Formula VI, 2-(3,5-dichloro-4-(2-methylenebutanoyl)phenoxy)acetic acid]"
2,4.62,"C=CC(=O)c1c(Cl)cc(OCC(=O)N(C)C)cc1Cl [Formula VIII, 2-(4-acryloyl-3,5-dichlorophenoxy)-N,N-dimethylacetamide]"
